Measured values published in patent US7365064B2, “Benzoxazine and benzothiazine derivatives and pharmaceutical compositions containing them” (Dr. Reddy's Laboratories Limited, priority 2001, dated 2008).
Structures can show the parent of a compound that is named as a salt.

Tests used:
Swiss albino mice = experiment: Plasma triglyceride and total cholesterol lowering activity in Swiss albino mice and guinea pigs; type: in vivo; conditions: 10 mg/kg orally for 6 days; species not named
Protocol: c) Plasma Triglyceride and Total Cholesterol Lowering Activity in Swiss Albino Mice and Gunie Pigs
Male Swiss albino mice (SAM) and male Guinea pigs were obtained from NIN and housed in DRF animal house. All these animals are maintained under 12 hour light and dark cycle at 25±1° C. Animals were given standard laboratory chow (NIN, Hyderabad, India) and water, ad libitum. SAM of 20-25 g body weight range and Guinea pigs of 500-760 g body weight range are used (Oliver, P., Plancke, M. O., Marzin, D., Clavey, V., Sauzieres, J and Fruchatt, J. C. Effects of fenofibrate, gemfibrozil and nicotinic acid on plasma lipoprotein levels in normal and hyperlipidemic mice. Atherosclerosis. 1988. 70 : 107-114).
The test compounds were administered orally to Swiss albino mice at 0.3 to 30 mg/kg/day dose for 6 days. Control mice are treated with vehicle (0.25% Carboxymethylcellulose; dose 10 ml/kg). The test compounds are administered orally to Guinea pigs at 0.3 to 30 mg/kg/day dose for 6 days. Control animals are treated with vehicle (0.25% Carboxymethylcellulose; dose 5 ml/kg).
The blood samples were collected in fed state 1 hour after drug administration on 0 and 6 day of treatment The blood was collected from the retro-orbital sinus through heparinised capillary in EDTA containing tubes. After centrifugation, plasma sample was separated for triglyceride and total cholesterol (Wieland, O. Methods of Enzymatic analysis. Bergermeyer, H. O., Ed., 1963. 211-214; Trinder, P. Ann. Clin. Biochem. 1969. 6: 24-27). Measurement of plasma triglyceride were done using commercial kits (Dr. Reddy's Diagnostic Division, Hyderabad, India).
(§1) 1. Percent reduction in Blood sugar/triglycerides/total cholesterol will be calculated according to the formula:
(§2) [formula] • OC=Zero day control group value • OT=Zero day treated group value • TC=Test day control group value • TT=Test day treated group value

C57BL/KsJ-db/db mice = experiment: Blood sugar and triglyceride lowering in db/db mice; type: in vivo; conditions: 3 mg/kg oral gavage daily for 6 days
Source text: Mutation in colonies of laboratory animals and different sensitivities to dietary regimens have made the development of animal models with non-insulin dependent diabetes and hyperlipidemia associated with obesity and insulin resistance possible. Genetic models such as db/db and ob/ob (Diabetes, (1982) 31(1): 1-6) mice and zucker fa/fa rats have been developed by the various laboratories for understanding the pathophysiology of disease and testing the efficacy of new antidiabetic compounds (Diabetes, (1983) 32: 830-838; Annu. Rep. Sankyo Res. Lab. (1994). 46: 1-57). The homozygous animals, C57 BL/KsJ-db/db mice developed by Jackson Laboratory, US, are obese, hyperglycemic, hyperinsulinemic and insulin resistant (J. Clin. Invest., (1990) 85 : 962-967), whereas heterozygous are lean and normoglycemic. In db/db model, mouse progressively develops insulinopenia with age, a feature commonly observed in late stages of human type II diabetes when blood sugar levels are insufficiently controlled. The state of pancreas and its course vary according to the models. Since this model resembles that of type II diabetes mellitus, the compounds of the present invention will be tested for blood sugar and triglycerides lowering activities.
Male C57BL/KsJ-db/db mice of 8 to 14 weeks age, having body weight range of 35 to 60 grams, bred at Dr. Reddy's Research Foundation (DRF) animal house, were used in the experiment. The mice are provided with standard feed (National Institute of Nutrition (NIN), Hyderabad, India) and acidified water, ad libitum. The animals having more than 350 mg/dl blood sugar will be used for testing. The number of animals in each group was 4.
Test compounds are suspended on 0.25% carboxymethyl cellulose and administered to test group at a dose of 0.1 mg to 30 mg/kg through oral gavage daily for 6 days. The control group receives vehicle (dose 10 ml/kg). On 6th day the blood samples will be collected one hour after administration of test compounds/vehicle for assessing the biological activity.
The random blood sugar and triglyceride levels can be measured by collecting blood (100 μl) through orbital sinus, using heparinised capillary in tubes containing EDTA which was centrifuged to obtain plasma. The plasma glucose and triglyceride levels can be measured spectrometrically, by glucose oxidase and glycerol-3-PO4 oxidase/peroxidse enzyme (Dr. Reddy's Lab. Diagnostic Division Kits, Hyderabad, India) methods respectively.
The blood sugar and triglycerides lowering activities of the test compound are calculated according to the formula.
1. Percent reduction in Blood sugar/triglycerides/total cholesterol will be calculated according to the formula: […]

hPPARγ = biological target: T1, hPPARγ (Homo sapiens, UniProt P37231); experiment: Determination of hPPARγ activity (GAL4 fusion luciferase reporter in HEK-293 cells); type: cell-based; conditions: compound concentration 1 μM
T1 construct: expressed in transfected cells; host or cells: HEK-293
T1 sequence (P37231 238-503 limits assumed): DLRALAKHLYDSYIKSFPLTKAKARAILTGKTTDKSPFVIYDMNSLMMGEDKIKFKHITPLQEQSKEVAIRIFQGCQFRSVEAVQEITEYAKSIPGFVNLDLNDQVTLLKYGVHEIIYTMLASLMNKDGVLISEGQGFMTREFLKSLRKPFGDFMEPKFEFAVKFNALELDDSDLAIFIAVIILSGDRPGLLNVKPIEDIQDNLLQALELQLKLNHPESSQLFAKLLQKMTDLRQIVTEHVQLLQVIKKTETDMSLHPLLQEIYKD
Protocol: b) Determination of hPPARγ Activity
Ligand binding domain of hPPARγ is fused to DNA binding domain of Yeast transcription factor GAL4 in eucaryotic expression vector. Using lipofectamine (Gibco BRL, USA) as transfecting reagent HEK-293 cells are transfected with this plasmid and a reporter plasmid harboring the luciferase gene driven by a GAL4 specific promoter. Compound can be added at 1 μM concentration after 48 hrs of transfection and incubated overnight Luciferase activity as a function of drug binding/activation capacity of PPARγ1 will be measured using Packard Luclite kit (Packard, USA) in Packard Top Cout (Ivan Sadowski, Brendan Bell, Peter Broag and Melvyn Hollis. Gene. 1992. 118: 137-141; Guide to Eukaryotic Transfections with Cationic Lipid Reagents. Life Technologies, GIBCO BRL, USA).

hPPARα = biological target: T2, hPPARα (Homo sapiens, UniProt Q07869); experiment: Determination of hPPARα activity (GAL4 fusion luciferase reporter in HEK-293 cells); type: cell-based; conditions: compound concentration 50 μM
T2 construct: expressed in transfected cells; host or cells: HEK-293
T2 sequence (Q07869 239-466 limits assumed): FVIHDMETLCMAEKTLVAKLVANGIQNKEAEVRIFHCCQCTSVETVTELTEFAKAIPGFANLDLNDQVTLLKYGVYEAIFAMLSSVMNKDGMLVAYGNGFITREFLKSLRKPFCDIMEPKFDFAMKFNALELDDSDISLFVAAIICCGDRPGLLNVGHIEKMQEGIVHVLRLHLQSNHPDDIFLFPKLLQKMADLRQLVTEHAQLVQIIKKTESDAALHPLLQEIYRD
Protocol: a) Determination of hPPARα Activity
Ligand binding domain of hPPARα was fused to DNA binding domain of Yeast transcription factor Gal 4 in eucaryotic expression vector. Using superfect (Qiagen, Germany) as transfecting reagent HEK-293 cells are transfected with this plasmid and a reporter plasmid harboring the luciferace gene driven by a GAL4 specific promoter. Compound can be added at different concentrations after 42 hrs of transfection and incubated overnight. Luiciferase activity as a function of compound binding/activation capacity of PPARα will be measured using Packard Luclite kit (Packard, USA) in Top Count (Ivan Sadowsi, Brendan Bell, Peter Broag and Melvyn Hollis. Gene. 1992. 118: 137-141; Superfect Transfetion Reagent Handbook February 1997. Qiagen, Germany.

[1] = tested on: hypercholesterolemic Sprague Dawley rats; experiment: Plasma triglyceride and cholesterol lowering activity in hypercholesterolemic rat models; type: in vivo; conditions: 10 mg/kg orally for 3 days; for HDL (%) ↑: increase; for Total Cholesterol (%) ↓ / Triglyceride (%) ↓ / LDL (%) ↓ / VLDL (%) ↓: reduction; for LDL (%) ↓: LDL calculated from total cholesterol; for LDL (%) ↓ / VLDL (%) ↓: HDL and triglyceride; for VLDL (%) ↓: VLDL calculated from total cholesterol
Protocol: b) Plasma Triglyceride and Cholesterol Lowering Activity in Hypercholesterolemic Rat Models
Male Sprague Dawley rats (NIN stock) were bred in DRF animal house. Animals were maintained under 12 hour light and dark cycle at 25±1° C. Rats of 180-200 gram body weight range were used for the experiment. Animals are made hypercholesterolemic by feeding 2% cholesterol and 1% sodium cholate mixed with standard laboratory chow [National Institute of Nutrition (NIN), Hyderabad, India] […] for 6 days. Throughout the experimental period the animals were maintained on the same diet (Petit, D., Bonnefis, M. T., Rey, C and Infante, R. Effects of ciprofibrate on liver lipids and lipoprotein synthesis in normo- and hyperlipidemic rats. Atherosclerosis. 1988. 74 : 215-225).
The test compounds can be administered orally at a dose 0.1 to 30 mg/kg/day for 3 days. Control group was treated with vehicle alone (0.25% Carboxymethylcellulose; dose 10 ml/kg).
The blood samples were collected in fed state 1 hour after drug administration on 0 and 3 day of compound treatment. The blood was collected from the retro-orbital sinus through heparinsed capillary in EDTA containing tubes. After centrifugation, plasma sample was separated for total cholesterol, HDL and triglyceride estimations. Measurement of plasma, triglyceride, total cholesterol and HDL are were done using commercial kits (Dr. Reddy's Laboratory, Diagnostic Division, India). LDL and VLDL cholesterol were calculated from the data obtained for total cholesterol, HDL and triglyceride. The reduction of various parameters examined are calculated according to the formula.
as §1, §2
2. LDL and VLDL cholesterol levels will be calculated according to the formula:
[formula] VLDL cholesterol in mg/dl=[Total cholesterol−HDL cholesterol−LDL cholesterol]mg/dl.

Row | Structure (SMILES) | Triglyceride Lowering (%) (Swiss albino mice) | Reduction in Blood Glucose Level (%) (C57BL/KsJ-db/db mice) | Triglyceride Lowering (%) (C57BL/KsJ-db/db mice) | PPARγ (hPPARγ) | PPARα (hPPARα) | HDL (%) ↑ [1] [%] | Total Cholesterol (%) ↓ [1] [%] | Triglyceride (%) ↓ [1] [%] | LDL (%) ↓ [1] [%] | VLDL (%) ↓ [1] [%]
1 | CCOC(Cc1ccc(NCCCN2CCOc3ccccc32)cc1)C(=O)O (stereo not shown) [Example 3, 3-[4-{3-(3,4-Dihydro-2H-benzo[b][1,4]oxazin-4-yl)propylamino}phenyl]-2-ethoxypropanoic acid arginine salt] | 70 | 33 | 29 | 3.0 | 4.7 | 254 | 69 | 77 | 80 | 77
2 | CCCCCCCN(CCN1C(=O)COc2ccccc21)c1ccc(CC(OCC)C(=O)O)cc1 (stereo not shown) [Example 6, 3-[4-N-Heptyl-N-{2-(3-oxo-3,4-dihydro-2H-benzo[b][1,4]oxazin-4-yl)ethylamino}phenyl]-2-ethoxypropanoic acid arginine salt] | 27 | – | – | – | – | – | – | – | – | –
3 | CCCCCCCN(CC(=O)N1CCOc2ccccc21)Cc1ccc(CC(OCC)C(=O)O)cc1 (stereo not shown) [Example 9, 2-Ethoxy-3-[4-{N-heptyl-N-(2-(3,4-dihydro-2H-benzo[b]oxazin-4-yl)-2-oxoethyl)aminomethyl}phenyl]propanoic acid arginine salt] | – | – | – | 6.2 | 4.6 | – | – | – | – | –
4 | CCOC(Cc1cccc(NCCCN2CCOc3ccccc32)c1)C(=O)O (stereo not shown) [Example 15, 3-[3-{3-(3,4-Dihydro-2H-benzo[b][1,4]oxazin-4-yl)propylamino}phenyl]-2-ethoxypropanoic acid arginine salt] | 43 | – | – | – | – | – | – | – | – | –
5 | CCOC(Cc1ccc(NCCCN2CCOc3cc(F)ccc32)cc1)C(=O)O (stereo not shown) [Example 18, 3-[4-{3-(7-Fluoro-3,4-dihydro-2H-benzo[b][1,4]oxazin-4-yl)propylamino}phenyl]-2-ethoxypropanoic acid arginine salt] | 61 | 16 | 35 | 1.2 | 4.4 | 260 | 64 | 77 | 74 | 77
6 | CCOC(Cc1ccc(NCc2ccc(OCCCN3CCOc4ccccc43)cc2)cc1)C(=O)O (stereo not shown) [Example 23, 2-Ethoxy-3-[4-{4-(3-(3,4-dihydro-2H-benzo[b][1,4]oxazin-4-yl)propyloxy)benzyl}aminophehyl]propanoic acid arginine salt] | – | – | – | 4.4 | 4.2 | – | – | – | – | –
7 | CCOC(Cc1ccc(NCCCN2CCSc3ccccc32)cc1)C(=O)O (stereo not shown) [Example 27, 2-Ethoxy-3-[4-{3-3,4-dihydro-2H-benzo[b][1,4]thiazin-4-yl)propylamino}phenyl]propanoic acid arginine salt] | – | – | – | 3.5 | 4.3 | – | – | – | – | –
